Test results: patent US11492335B2, “Aryl or heteroaryl triazolone derivatives or salts thereof, or pharmaceutical compositions comprising the same” (YUHAN CORPORATION, priority 2018, dated 2022)
Structures can show the parent of a compound that is named as a salt.

What was measured:
Type in all cases: biochemical
recombinant human VAP-1 = biological target: T1, recombinant human VAP-1 (Homo sapiens, UniProt Q16853); assay: Activity on recombinant human VAP-1, Amplex Red HRP-coupled hydrogen peroxide assay, benzylamine substrate; conditions: recombinant human VAP-1, benzylamine substrate; read-out: Inhibitory Activity (IC50, nM) human VAP-1
T1 construct: purchased R&D systems
T1 sequence (Q16853 1-763): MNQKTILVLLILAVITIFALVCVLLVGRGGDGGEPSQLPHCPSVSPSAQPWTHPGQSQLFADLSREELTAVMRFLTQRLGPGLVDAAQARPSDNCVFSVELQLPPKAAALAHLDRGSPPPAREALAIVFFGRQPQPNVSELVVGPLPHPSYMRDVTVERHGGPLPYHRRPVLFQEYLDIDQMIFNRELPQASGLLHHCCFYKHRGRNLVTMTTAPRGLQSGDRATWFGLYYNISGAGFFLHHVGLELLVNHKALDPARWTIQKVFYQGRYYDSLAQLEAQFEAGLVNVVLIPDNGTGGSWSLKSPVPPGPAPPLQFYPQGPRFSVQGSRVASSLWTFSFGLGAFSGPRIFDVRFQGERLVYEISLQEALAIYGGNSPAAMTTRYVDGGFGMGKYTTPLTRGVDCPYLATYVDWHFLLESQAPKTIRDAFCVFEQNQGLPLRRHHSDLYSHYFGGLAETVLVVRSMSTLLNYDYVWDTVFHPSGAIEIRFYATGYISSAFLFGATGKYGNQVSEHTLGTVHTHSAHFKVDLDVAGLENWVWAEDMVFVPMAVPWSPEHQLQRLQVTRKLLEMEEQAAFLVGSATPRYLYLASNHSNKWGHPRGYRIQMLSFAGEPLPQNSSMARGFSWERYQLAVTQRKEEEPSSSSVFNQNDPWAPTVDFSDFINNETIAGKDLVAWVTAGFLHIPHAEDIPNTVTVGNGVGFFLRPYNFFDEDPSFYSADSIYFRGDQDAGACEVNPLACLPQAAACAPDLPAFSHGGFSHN
Procedure, shortened: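 Compounds were preincubated with purified enzyme in 50 mM sodium phosphate pH 7.4 at 37 °C for 30 min, then 200 uM Amplex Red, 1 mM benzylamine and 1 U/mL HRP were added. Resorufin fluorescence (ex 544/em 590 nm) was followed over 1-2 h; IC50 came from 4-parameter fits of signal-rate inhibition.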

[1] = biological target: T2, recombinant human MAO-A (monoamine oxidase-A) (Homo sapiens, UniProt P21397); assay: Activity on recombinant human MAO-A, Amplex Red method, 0.5 mM tyramine substrate; conditions: 0.5 mM tyramine substrate, read-out: Inhibitory Activity (IC50, nM) MAO-A
T2 construct: purchased Sigma-Aldrich
T2 sequence (P21397 1-527): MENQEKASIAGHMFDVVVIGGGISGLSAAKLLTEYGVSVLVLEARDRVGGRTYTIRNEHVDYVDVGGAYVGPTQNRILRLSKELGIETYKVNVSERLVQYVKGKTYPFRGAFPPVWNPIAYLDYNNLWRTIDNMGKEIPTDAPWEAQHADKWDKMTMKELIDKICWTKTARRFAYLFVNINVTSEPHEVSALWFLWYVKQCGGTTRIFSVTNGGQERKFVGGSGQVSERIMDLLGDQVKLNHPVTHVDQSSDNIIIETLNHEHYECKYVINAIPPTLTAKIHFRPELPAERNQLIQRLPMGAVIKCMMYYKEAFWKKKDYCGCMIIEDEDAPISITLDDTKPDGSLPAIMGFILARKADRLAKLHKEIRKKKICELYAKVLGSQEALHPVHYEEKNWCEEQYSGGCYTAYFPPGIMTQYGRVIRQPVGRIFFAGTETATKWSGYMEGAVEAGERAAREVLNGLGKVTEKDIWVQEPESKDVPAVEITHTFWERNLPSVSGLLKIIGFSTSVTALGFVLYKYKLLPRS
Procedure, shortened: (§1)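 8-point, 1:3 dose-response, four-parameter logistic IC50 from reduction in fluorescence rate versus DMSO control. HRP/Amplex Red detection of H2O2 (ex 544, em 590 nm) after 30 min, 37 °C compound–enzyme preincubation in pH 7.4 phosphate buffer. MAO-A substrate: 0.5 mM tyramine; MAO-B: 1 mM benzylamine.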

[2] = biological target: T3, recombinant human MAO-B (monoamine oxidase-B) (Homo sapiens, UniProt P27338); assay: Activity on recombinant human MAO-B, Amplex Red method, 1 mM benzylamine substrate; conditions: 1 mM benzylamine substrate, read-out: Inhibitory Activity (IC50, nM) MAO-B
T3 construct: purchased Sigma-Aldrich
T3 sequence (P27338 1-520): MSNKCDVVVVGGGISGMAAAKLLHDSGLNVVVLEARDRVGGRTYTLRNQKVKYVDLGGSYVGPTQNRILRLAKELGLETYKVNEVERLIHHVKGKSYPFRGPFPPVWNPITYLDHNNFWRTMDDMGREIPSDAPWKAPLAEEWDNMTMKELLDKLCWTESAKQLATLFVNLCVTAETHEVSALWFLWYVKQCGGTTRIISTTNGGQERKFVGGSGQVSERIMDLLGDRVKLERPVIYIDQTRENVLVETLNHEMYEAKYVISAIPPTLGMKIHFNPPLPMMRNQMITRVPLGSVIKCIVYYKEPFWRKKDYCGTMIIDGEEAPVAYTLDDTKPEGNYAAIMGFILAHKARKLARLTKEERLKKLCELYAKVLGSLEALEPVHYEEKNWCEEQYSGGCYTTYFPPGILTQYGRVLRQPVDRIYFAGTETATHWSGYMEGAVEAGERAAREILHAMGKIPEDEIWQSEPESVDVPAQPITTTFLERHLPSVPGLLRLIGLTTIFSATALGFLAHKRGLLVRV
Procedure, shortened: as §1

[3] = biological target: T4, recombinant human DAO (diamine oxidase) (Homo sapiens, UniProt P19801); assay: Activity on recombinant human DAO, Amplex Red method, 1 mM putrescine substrate; conditions: recombinant human DAO, 1 mM putrescine substrate; read-out: Inhibitory Activity (IC50, nM) DAO
T4 construct: purchased R&D systems
T4 sequence (P19801 20-751): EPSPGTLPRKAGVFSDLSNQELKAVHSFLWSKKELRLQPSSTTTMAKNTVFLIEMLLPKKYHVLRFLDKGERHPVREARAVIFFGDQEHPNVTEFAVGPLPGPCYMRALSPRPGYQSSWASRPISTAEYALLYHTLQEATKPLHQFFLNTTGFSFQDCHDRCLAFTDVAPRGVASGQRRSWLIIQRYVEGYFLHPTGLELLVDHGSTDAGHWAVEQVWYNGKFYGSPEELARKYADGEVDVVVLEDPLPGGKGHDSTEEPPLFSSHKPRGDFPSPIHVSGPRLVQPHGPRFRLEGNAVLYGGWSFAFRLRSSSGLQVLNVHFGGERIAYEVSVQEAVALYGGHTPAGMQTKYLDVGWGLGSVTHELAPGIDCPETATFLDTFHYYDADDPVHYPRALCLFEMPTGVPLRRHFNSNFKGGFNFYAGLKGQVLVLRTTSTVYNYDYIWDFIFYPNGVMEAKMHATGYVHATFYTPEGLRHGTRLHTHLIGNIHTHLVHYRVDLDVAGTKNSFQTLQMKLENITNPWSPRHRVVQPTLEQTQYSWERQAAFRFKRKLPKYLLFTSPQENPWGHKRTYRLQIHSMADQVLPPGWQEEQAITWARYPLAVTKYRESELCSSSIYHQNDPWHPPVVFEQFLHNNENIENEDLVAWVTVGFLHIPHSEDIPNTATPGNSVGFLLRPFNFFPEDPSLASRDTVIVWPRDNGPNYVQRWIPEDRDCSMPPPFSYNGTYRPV
Procedure, shortened: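 Inhibition of recombinant human DAO (diamine oxidase, R&D systems) was assessed with the Amplex Red Hydrogen Peroxide Assay Kit. Hydrogen peroxide produced from 1 mM putrescine was detected through an HRP-coupled reaction that converts Amplex Red into fluorescent resorufin, read at 544 nm excitation and 590 nm emission. IC50 values came from four-parameter logistic fits in GraphPad Prism.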

IC50 (recombinant human VAP-1) [nM] | IC50 [1] [nM] | IC50 [2] [nM] | IC50 [3] [nM] | SMILES
1.4 | 14000 | > 10000 | 110 | NC/C(=C\F)Cn1ncn(-c2cccc(-c3ccc(N4CCNCC4)cc3)n2)c1=O [Example 184, 2-[(2E)-2-(aminomethyl)-3-fluoroprop-2-en-1-yl]-4-{6-[4-(piperazin-1-yl)phenyl]pyridin-2-yl}-2,4-dihydro-3H-1,2,4-triazol-3-one hydrochloride]
2.4 | > 100000 | > 10000 | 2.5 | NC/C(=C\F)Cn1ncn(-c2cccc(-c3cccc(N4CCNCC4)c3)n2)c1=O [Example 185, 2-[(2E)-2-(aminomethyl)-3-fluoroprop-2-en-1-yl]-4-{6-[3-(piperazin-1-yl)phenyl]pyridin-2-yl}-2,4-dihydro-3H-1,2,4-triazol-3-one hydrochloride]
0.91 | > 100000 | > 10000 | < 10 | NC/C(=C\F)Cn1ncn(-c2cccc(-c3ccc(C(=O)N4CCOCC4)cc3)n2)c1=O [Example 186, 2-[(2E)-2-(aminomethyl)-3-fluoroprop-2-en-1-yl]-4-{6-[4-(morpholin-4-ylcarbonyl)phenyl]pyridin-2-yl}-2,4-dihydro-3H-1,2,4-triazol-3-one hydrochloride]
0.45 | > 100000 | 940 | < 10 | NC/C(=C\F)Cn1ncn(-c2cccc(-c3ccc(C(F)(F)F)nc3)n2)c1=O [Example 187, 2-[(2E)-2-(aminomethyl)-3-fluoroprop-2-en-1-yl]-4-[6′-(trifluoromethyl)-2,3′-bipyridin-6-yl]-2,4-dihydro-3H-1,2,4-triazol-3-one hydrochloride]
0.6 | > 100000 | 23000 | 4 | CN(C)c1ccc(-c2cccc(-n3cnn(C/C(=C/F)CN)c3=O)n2)cn1 [Example 188, 2-[(2E)-2-(aminomethyl)-3-fluoroprop-2-en-1-yl]-4-[6′-(dimethylamino)-2,3′-bipyridin-6-yl]-2,4-dihydro-3H-1,2,4-triazol-3-one hydrochloride]
0.53 | > 100000 | > 10000 | < 30 | NC/C(=C\F)Cn1ncn(-c2cccc(-c3ccc(N4CCOCC4)nc3)n2)c1=O [Example 189, 2-[(2E)-2-(aminomethyl)-3-fluoroprop-2-en-1-yl]-4-[6′-(morpholin-4-yl)-2,3′-bipyridin-6-yl]-2,4-dihydro-3H-1,2,4-triazol-3-one]
0.6 | > 100000 | 190 | 5 | Cc1cc(-c2cccc(-n3cnn(C/C(=C/F)CN)c3=O)n2)cnc1F [Example 190, 2-[(2E)-2-(aminomethyl)-3-fluoroprop-2-en-1-yl]-4-(6′-fluoro-5′-methyl-2,3′-bipyridin-6-yl)-2,4-dihydro-3H-1,2,4-triazol-3-one hydrochloride]
0.5 | > 100000 | 1200 | 19 | CN(C)c1ncc(-c2cccc(-n3cnn(C/C(=C/F)CN)c3=O)n2)cc1F [Example 191, 2-[(2E)-2-(aminomethyl)-3-fluoroprop-2-en-1-yl]-4-[6′-(dimethylamino)-5′-fluoro-2,3′-bipyridin-6-yl]-2,4-dihydro-3H-1,2,4-triazol-3-one hydrochloride]
1.4 | > 100000 | 250 | 0.4 | Cn1nc(C(F)(F)F)cc1-c1cccc(-n2cnn(C/C(=C/F)CN)c2=O)n1 [Example 192, 2-[(2E)-2-(aminomethyl)-3-fluoroprop-2-en-1-yl]-4-{6-[1-methyl-3-(trifluoromethyl)-1H-pyrazol-5-yl]pyridin-2-yl}-2,4-dihydro-3H-1,2,4-triazol-3-one hydrochloride]
2.5 | > 100000 | 1160 | 38 | NC/C(=C\F)Cn1ncn(-c2cccc(-c3ccc4c(c3)OCO4)n2)c1=O [Example 193, 2-[(2E)-2-(aminomethyl)-3-fluoroprop-2-en-1-yl]-4-[6-(1,3-benzodioxol-5-yl)pyridin-2-yl]-2,4-dihydro-3H-1,2,4-triazol-3-one]
1.2 | > 100000 | 2710 | 2.9 | NC/C(=C\F)Cn1ncn(-c2cccc(-c3ccc4c(c3)OCCO4)n2)c1=O [Example 194, 2-[(2E)-2-(aminomethyl)-3-fluoroprop-2-en-1-yl]-4-[6-(2,3-dihydro-1,4-benzodioxin-6-yl)pyridin-2-yl]-2,4-dihydro-3H-1,2,4-triazol-3-one]
0.66 | > 100000 | 620 | < 30 | NC/C(=C\F)Cn1ncn(-c2cccc(-c3ccc4nonc4c3)n2)c1=O [Example 195, 2-[(2E)-2-(aminomethyl)-3-fluoroprop-2-en-1-yl]-4-[6-(2,1,3-benzooxadiazol-5-yl)pyridin-2-yl]-2,4-dihydro-3H-1,2,4-triazol-3-one]
